# Test results as given in patent US10799467B2, “Use of the phytocannabinoid cannabidivarin (CBDV) in the treatment of epilepsy” (GW Pharma Limited, priority 2010, dated 2020).
# Like-named read-outs stand apart in the source and are kept apart here. Marks after values point to notes of the source that are not given here.
# What was measured:
# [1] = cited from earlier work
# CB1 receptor = CB1 receptor (Homo sapiens, UniProt P21554); conditions: cited from earlier work
# PTZ-induced seizures [2] = assay: PTZ model of generalised seizures (80 mg/kg PTZ); format: in vivo, Wistar rats; conditions: for Median severity: vehicle 4.25; for % no seizure: vehicle 12.5; for mortality rate: vehicle 44%, not significant
# Method: Male Wistar rats (P24-29; 75-110 g) were used to assess the effects of the phytocannabinoid CBDV in the PTZ model of generalised seizures. Animals were habituated to the test environment, cages, injection protocol and handling prior to experimentation. Animals were housed in a room at 21° C. on a 12 hour light: dark cycle (lights on 0900) in 50% humidity, with free access to food and water.
# Five 6 L Perspex tanks with lids were placed on a single bench with dividers between them. Closed-circuit television (CCTV) cameras were mounted onto the dividers to observe rat behaviour. Sony Topica CCD cameras (Bluecherry, USA) were linked via BNC cables to a low-noise PC via Brooktree digital capture cards (Bluecherry, USA). Zoneminder (http://www.zoneminder.com) software was used to monitor rats, start and end recordings and manage video files. In-house Linux scripts were used to encode video files into a suitable format for further offline analysis using The Observer (Noldus Technologies).
# A range of doses of PTZ (50-100 mg/kg body weight) were used to determine the best dose for induction of seizures (see below). As a result, a dose of 80 mg/kg injected intra-peritoneally (IP; stock solution 50 mg/ml in 0.9% saline) were used to screen the CBDV.
# On the day of testing, pure CBDV was administered via intra-peritoneal (i.p.) injection at doses of 50, 100 and 200 mg/kg alongside animals that were injected with a matched volume of the cannabinoid vehicle (2:1:17 ethanol:Cremophor: 0.9% w/v NaCl solution), which served as the negative control group. Animals were then observed for 1 hour, after which time they received an IP injection of 80 mg/kg PTZ. Negative vehicle controls were performed in parallel with cannabinoid-dosed subjects. After receiving a dose of PTZ, animals were observed and videoed to determine the severity of seizure and latency to several seizure behaviour types (see in vivo analysis, below). Animals were filmed for half an hour after last sign of seizure, and then returned to their cage.
# Animals were observed during experimental procedures, but all analysis was performed offline on recorded video files using The Observer behavioural analysis software (Noldus, Netherlands). A seizure severity scoring system was used to determine the levels of seizure experienced by subjects (Pohl & Mares, 1987). All signs of seizure were detailed for all animals.
# The latency (in seconds) from injection of PTZ to first myoclonic jerk (FMJ; score of 1), and to the animal attaining “forelimb clonus with tonic component and body twist” (score of 3.5) were recorded. FMJ is an indicator of the onset of seizure activity, whilst >90% of animals developed scores of 3.5, and so is a good marker of the development of more severe seizures. Data are presented as the mean±S.E.M. within an experimental group.
# This is given as the median value for each experimental group based on the scoring scale below.
# The percentage of animals within an experimental group that died as a result of PTZ-induced seizures. Note that the majority of animals that developed tonic-clonic seizures (scores of 4 and 5) died as a result, and that a score of 6 (death) automatically denotes that the animal also experienced tonic-clonic seizures.
# This is given as the mean±S.E.M. for each experimental group.
# For measures of latency and severity, one way analysis of variance (ANOVA) was performed on the four groups together (vehicle and 50, 100 and 200 mg/kg CBDV) to detect overall effects of CBDV (p≤0.05 considered significant).
# Significant ANOVA results were followed by post hoc tests to test differences between vehicle and drug groups (Tukey's test, p≤0.05 considered significant).
# Methodology as described in Example 2.
# General methodology is as described in Example 2.
# Three doses of THCV BDS were assessed against a concentration of PTZ known to induce moderate seizures in rats (70 mg/kg; see pilot, above). […]
# seizure frequency [3] = conditions: 900-1200 mg of cannabidiol a day for 10 months; single patient; cited from earlier work
# seizure frequency [4] = conditions: 200-300 mg of cannabidiol per day in addition to standard antiepileptic drugs; 12 patients; cited from earlier work
# CB2 receptor = CB2 receptor (Homo sapiens, UniProt P34972); conditions: WO 2007/138322; cited from earlier work
# Sequence of CB2 receptor (P34972 whole entry): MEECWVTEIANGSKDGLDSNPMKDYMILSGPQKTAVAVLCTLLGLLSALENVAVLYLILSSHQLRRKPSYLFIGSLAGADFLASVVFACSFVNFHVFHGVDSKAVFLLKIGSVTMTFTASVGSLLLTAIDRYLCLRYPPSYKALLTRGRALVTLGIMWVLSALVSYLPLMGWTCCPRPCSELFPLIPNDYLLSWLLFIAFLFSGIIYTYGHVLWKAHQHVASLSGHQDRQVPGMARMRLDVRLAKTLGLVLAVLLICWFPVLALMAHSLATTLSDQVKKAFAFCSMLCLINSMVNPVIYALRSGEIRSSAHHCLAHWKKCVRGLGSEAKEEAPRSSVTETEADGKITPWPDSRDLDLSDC
# grand mal seizures = conditions: 200-300 mg of cannabidiol plus regular medication; Cunha et al (1980); cited from earlier work
# MES-induced seizure = assay: Maximal electroshock seizure (MES) model of epilepsy; format: in vivo, Mouse/ICR
# Method: The vehicle used in this study was 2:1:17 (ethanol:Cremophor:0.9% ^w/v, NaCl). The test compounds used were cannabidiol (CBD) and cannabidivarin (CBDV). These were made to a solution at the highest concentration; these were then dissolved in ethanol before combination with Cremophor and 0.9% NaCl in the proportion described above. The CBD or CBDV were administered intraperitoneally at a volume of 10 ml/kg body weight. The SAED valproic acid (VBA) was dissolved in saline.
# Animal Species/Strain: Mouse/ICR, Microbiological grade: SPF, Supplier: SLC Japan, Inc. […] Temperature: 23±2° C., Humidity: 60±10%, Light conditions: 7 AM to 7 PM for the light period, 7 PM to 7 AM for the dark period. Chow and water: Free access to CRF-1 (Oriental Yeast Co, Ltd) and tap water.
# One day before each experiment, mice were weighed and randomized into several groups in each test. On the morning of the experiment day, body weight was measured in order to calculate the administration volume of each animal. Vehicle, CBD, CBDV or valproic acid sodium salt was interperitoneally administered 30 minutes before electric stimuli. Maximal electroshock seizures (MES) in mice was induced by a stimulator (UGO BASILE ECT UNIT 7801, Italia) using a current of 30 mA delivered with a pulse frequency of 100 Hz for 200 msec through earlap electrodes.
# All statistical analyses were performed using SAS Software for Windows, Release 9.1 (SAS Institute Japan). The difference of the number (hindlimb extension or deaths) in each group was assessed using two-tailed Fisher's exact test.
# [5] = rats; WO 2007/138322; cited from earlier work
# [6] = tested on: pilocarpine-induced seizures; assay: CBDV with standard anti-epileptic drugs in the pilocarpine model of epilepsy; format: in vivo; conditions: CBDV 200 mg/kg with valproate at various doses
# Text: These two drugs are representative of two classes of anti-convulsants which have different mechanisms of action.
# PTZ-induced seizures [7] = assay: CBDV with standard anti-epileptic drugs in the PTZ model of generalised seizures; format: in vivo, Wistar rats; conditions: valproate (varying doses) co-administered with CBDV 200 mg/kg
# Method: As described in Example 2 above. Varying doses of the SAED's ethosuximide and valproate were tested in combination to isolated CBDV at a dose of 200 mg/kg.
# seizures = conditions: THC administered to 5 institutionalized children not responding to phenobarbital and phenytoin; cited from earlier work
# [8] = rats at doses greater than 200 mg/kg
# Sequence of CB1 receptor (P21554 whole entry): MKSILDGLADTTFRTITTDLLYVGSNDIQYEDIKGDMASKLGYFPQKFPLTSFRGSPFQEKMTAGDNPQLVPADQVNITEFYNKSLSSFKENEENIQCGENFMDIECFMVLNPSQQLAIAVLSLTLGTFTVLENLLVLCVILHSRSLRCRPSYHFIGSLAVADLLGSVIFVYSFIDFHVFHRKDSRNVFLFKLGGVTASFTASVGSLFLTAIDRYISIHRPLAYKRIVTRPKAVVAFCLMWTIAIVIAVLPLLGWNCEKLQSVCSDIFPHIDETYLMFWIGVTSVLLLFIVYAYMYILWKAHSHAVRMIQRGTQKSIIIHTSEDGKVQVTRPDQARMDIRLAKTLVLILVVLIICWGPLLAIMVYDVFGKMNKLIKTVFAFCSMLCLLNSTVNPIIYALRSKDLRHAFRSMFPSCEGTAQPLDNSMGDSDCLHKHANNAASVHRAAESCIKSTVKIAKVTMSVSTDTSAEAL
structure (smiles),measurement,setting,value
CCC1(C)CC(=O)NC1=O (stereo not drawn) [ethosuximide],motor and other side effects,[1]; [8],notable motor and other side effects (including sedation)
"C=C(C)[C@@H]1CCC(C)=C[C@H]1c1c(O)cc(CCCCC)cc1O [CBD, cannabidiol]",activity at the CB1 receptor,CB1 receptor,inverse agonists
same,animals that died,"PTZ-induced seizures [2]; 100 mg/kg CBD IP 60 minutes before 80 mg/kg PTZ, vehicle 46.7%, p<0.001",6.7%
same,animals that experienced the most severe seizures (score of 5),"PTZ-induced seizures [2]; 100 mg/kg CBD IP, 80 mg/kg PTZ, vehicle 53.3%, p<0.001",6.7%
same,latency of seizure development,"PTZ-induced seizures [2]; CBD 1, 10 and 100 mg/kg IP, 80 mg/kg PTZ",no significant increases
same,seizure frequency,seizure frequency [3],markedly reduced
same,improvement in seizure frequency,seizure frequency [4],no significant improvement
same,activity at the CB2 receptor,CB2 receptor,inverse agonists
same,patients who remained unchanged,grand mal seizures,1
same,patients who showed complete improvement,grand mal seizures,3
same,patients who showed minor improvement,grand mal seizures,2
same,patients who showed partial improvement,grand mal seizures,2
same,unwanted effect,grand mal seizures,mild sedation
same,Incidence of Tonic convulsion,"MES-induced seizure; 3 mg/kg i.p., Table 10.1, 5 mice per group, vehicle 5/5",3/5
same,Incidence of Tonic convulsion,"MES-induced seizure; 10 mg/kg i.p., Table 10.1, 5 mice per group, vehicle 5/5",4/5
same,Incidence of Tonic convulsion,"MES-induced seizure; 30 mg/kg i.p., Table 10.1, 5 mice per group, vehicle 5/5",3/5
same,Incidence of Tonic convulsion,"MES-induced seizure; 100 mg/kg i.p., Table 10.1, 5 mice per group, vehicle 5/5",4/5
same,inhibition of the expression of hindlimb extension with statistical significance,MES-induced seizure; CBD 3-100 mg·kg IP,not able to inhibit
same,bodyweight,[5],reduced
"CCCc1cc(O)c2c(c1)OC(C)(C)[C@@H]1CCC(C)=C[C@@H]21 [THCV, tetrahydrocannabivarin]",activity at the CB1 receptor,CB1 receptor,antagonist
same,Median severity,"PTZ-induced seizures [2]; 0.025 mg/kg THCV, 80 mg/kg PTZ",3.5
same,% no seizure,"PTZ-induced seizures [2]; 0.025 mg/kg THCV, 80 mg/kg PTZ",5.9%
same,Median severity,"PTZ-induced seizures [2]; 0.25 mg/kg THCV, 80 mg/kg PTZ",3.5
same,% no seizure,"PTZ-induced seizures [2]; 0.25 mg/kg THCV, 80 mg/kg PTZ",33.3%
same,Median severity,"PTZ-induced seizures [2]; 2.5 mg/kg THCV, 80 mg/kg PTZ",3.5
same,% no seizure,"PTZ-induced seizures [2]; 2.5 mg/kg THCV, 80 mg/kg PTZ",18.8%
same,mortality rate,"PTZ-induced seizures [2]; high (2.5 mg/kg) pure THCV, 80 mg/kg PTZ",38%
same,latency to score of [5] vs vehicle,"PTZ-induced seizures [2]; highest dose of THCV (2.5 mg/kg), 80 mg/kg PTZ, p=0.013","increased latencies, reaching a significant level"
same,latency to score of [3] vs vehicle,"PTZ-induced seizures [2]; highest dose of THCV (2.5 mg/kg), 80 mg/kg PTZ, p=0.017","increased latencies, reaching a significant level"
same,latency to first manifestation of seizure-like behaviour vs vehicle,"PTZ-induced seizures [2]; highest dose of THCV (2.5 mg/kg), 80 mg/kg PTZ, p=0.02",delay of onset was significant
same,mortality rate,"PTZ-induced seizures [2]; low (0.025 mg/kg) pure THCV, 80 mg/kg PTZ",41%
same,mortality rate,"PTZ-induced seizures [2]; medium (0.25 mg/kg) pure THCV, 80 mg/kg PTZ",33%
same,duration of PTZ-induced seizures in animals that survived vs vehicle,"PTZ-induced seizures [2]; medium dose of THCV (0.25 mg/kg), 80 mg/kg PTZ, p=0.03",significantly shorter
"CCCC(CCC)C(=O)O [Valproic acid, valproic acid, reference compound]",motor and other side effects,[1]; [8],notable motor and other side effects (including sedation)
same,Incidence of Tonic convulsion,"MES-induced seizure; 200 mg/kg i.p., Table 10.2, 10 mice per group, vehicle 9/10",5/10
same,Incidence of Tonic convulsion,"MES-induced seizure; 350 mg/kg i.p., Table 10.1, 5 mice per group, vehicle 5/5",0/5**
same,Incidence of Tonic convulsion,"MES-induced seizure; 350 mg/kg i.p., Table 10.2, 10 mice per group, vehicle 9/10",1/10**
same,hindlimb extension vs vehicle group,"MES-induced seizure; 350 mg/kg valproic acid, statistically significant",blocked
same,mortality (independent effect),[6],only CBDV and not valproate independently caused a significant decrease
same,seizure severity (independent effect),[6],independent and positive effects
same,mortality (independent effect when co-administered),PTZ-induced seizures [7],significant decreases
same,onset latency (independent effect when co-administered),PTZ-induced seizures [7],significant decreases
same,seizure severity (independent effect when co-administered),PTZ-induced seizures [7],significant decreases
"CCCCCc1cc(O)c2c(c1)OC(C)(C)[C@@H]1CCC(C)=C[C@@H]21 [THC, tetrahydrocannabinol]",seizure outcome in 5 children,seizures,"One became entirely free of seizures, one became almost completely free of seizures, and the other three did no worse than before"
CCC1(c2ccccc2)C(=O)NC(=O)NC1=O [phenobarbital],motor and other side effects,[1]; rat models of epilepsy at doses greater than 250 mg/kg,notable motor and other side effects (including sedation)
